Series [1] has as its system breast cancer cells. In words: Human breast cancer xenograft growth in athymic nude mice. The class given is in vivo. The method, then: FIG. 5. […] 10^6 breast cancer cells were injected in the mammary fat pad of 4 groups of athymic, nude mice (5 mice per group). Control mice received no treatment.
In this study, 10^6 breast cancer cells were injected in the mammary fat pad of 4 groups of athymic, nude mice (5 mice per group). Control mice received no treatment.
A general note: In xenograft studies the graft and the host belong to different species.

Series [2] deals with copper-albumin (Homo sapiens, UniProt P02768). To be noted: in vitro.
For series [3] the following is noted: cited from earlier work.
The conditions of series [4]: human, in vivo; cited from earlier work.
For series [5] the following is noted: in vivo; cited from earlier work.
The conditions of series [6]: cited from earlier work. The source holds these as a separate data set.
[7] abbreviates: therapeutic dose 1,000-2,000 mg/day.

These results are taken from US7888389B2 (The Regents of the University of Michigan, priority 2002, dated 2011).

“Also recorded” adds a separate entry of the source.

Chain of copper-albumin (P02768 25-609): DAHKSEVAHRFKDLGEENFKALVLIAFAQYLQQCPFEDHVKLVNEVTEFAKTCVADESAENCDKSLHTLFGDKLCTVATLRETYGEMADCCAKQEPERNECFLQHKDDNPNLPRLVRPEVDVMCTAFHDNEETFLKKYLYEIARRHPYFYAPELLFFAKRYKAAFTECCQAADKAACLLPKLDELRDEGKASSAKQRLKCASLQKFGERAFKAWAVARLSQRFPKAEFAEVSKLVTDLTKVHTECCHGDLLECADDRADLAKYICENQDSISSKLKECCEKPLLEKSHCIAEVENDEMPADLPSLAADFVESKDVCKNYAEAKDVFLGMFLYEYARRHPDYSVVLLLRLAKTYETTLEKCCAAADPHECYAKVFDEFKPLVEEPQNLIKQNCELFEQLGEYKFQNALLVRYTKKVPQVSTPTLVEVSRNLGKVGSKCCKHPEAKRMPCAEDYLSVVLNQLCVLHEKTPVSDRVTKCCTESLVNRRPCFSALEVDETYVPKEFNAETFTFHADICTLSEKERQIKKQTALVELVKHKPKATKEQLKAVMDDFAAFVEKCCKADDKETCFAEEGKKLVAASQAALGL

“tetrapropylammonium tetrathiomolybdate [TP-TM]”: the “tumor growth curves versus control animals” value in series [1] (TM 1 mg/day, TP-TM 1 mg/day and 1.5 mg/day, p<0.01 vs control) is given as “effectively inhibiting tumor growth”. For the same compound, in series [1] (TP-TM 1 and 1.5 mg/day vs AmmTM 1 mg/day), the “TP-TM tumor growth inhibition compared with TM” value was “indistinguishable from that of AmmTM; also recorded: at least as effective as TM; also recorded: statistically indistinguishable from the TM curves”. Besides, in series [2], the copper-albumin-TM tripartite binding result is given as “show the standard copper-albumin-TM tripartite binding”.
For the compound `NCCNCCNCCN` [trientine], in series [3] (after several weeks of use), the patients with proteinuria entry is given as “about 20%”. Besides, in series [3] (setting [7]), the “cupruresis after the first few weeks of therapy” value was 2 to 3 mg and the initial cupruresis is 4 to 5 mg.
As for `NC(=O)c1nnn(Cc2cc(Cl)c(C(=O)c3ccc(Cl)cc3)c(Cl)c2)c1N` [CAI, carboxyamidotriazole], the “disease stabilization in cancer patients having progressive disease before treatment” value in series [4] is reported as 49%.
In the case of `CC(C)(S)[C@@H](N)C(=O)O` [penicillamine], in series [5], the initial hypersensitivity syndrome result is recorded as “about a quarter to a third of patients”.
Turning to `CC(=O)[O-].CC(=O)[O-].[Zn+2]` [zinc, zinc acetate], in series [6] (150 mg daily, 200 Wilson's disease patients), the toxicity entry was “no toxicity at all”. Moreover, the copper balance induced in series [6] (at the two week point) is recorded as −0.35 mg daily. In series [6] (in vivo), the “time to bring urine copper and nonceruloplasmin plasma copper to subtoxic levels” value is listed as “as long as six months”; the “time to intestinal metallothionein induction and negative copper balance” value is on record as “approximately two weeks”.
